Test results as given in patent US20150018546A1, “HETEROCYCLIC COMPOUND HAVING ANTI-HIV ACTIVITY” (TOYAMA CHEMICAL CO., LTD., priority 2012, published 2015).
Read-outs that look alike come from different tables or passages of the source.

System: HIV-1 (JRCSF)
Assay: Anti-HIV activity in MaRBLE cells infected with HIV-1 (JRCSF), luciferase readout
Type: cell-based
Conditions: Human immunodeficiency virus 1, 168 h, read-out: Anti-HIV activity IC50
Protocol: This test was conducted with reference to Journal of Clinical Microbiology, 2007, Vol. 45, p. 477-487.
The anti-HIV activity was evaluated using MaRBLE cells in which a luciferase gene to be expressed under the control of HIV-1 LTR and a CCR5 gene, etc. were introduced in human T lymphocyte-derived HPB-M(a).
A fresh medium or each appropriately diluted test compound was dispensed to 96-well plates to prepare drug solution-containing plates.
The MaRBLE cells were suspended in RPMI1640 containing 10% FCS (fetal calf serum) and penicillin/streptomycin and infected with HIV-1 (JRCSF). Then, the cells were inoculated to the drug solution-containing plates (1×10^5 cells/well). The same number of uninfected cells were inoculated as a control group to the drug solution-containing plates.
After culture at 37° C. for 7 days in a 5% CO2 atmosphere, the intracellular luciferase activity was measured using Steady-Glo Luciferase assay system (Promega Corp.).
The rate of viral proliferation was determined according to the following expression:
Rate of viral proliferation(%)=(A/B)×100
A=(Firefly luciferase activity of the compound-supplemented well)−(Firefly luciferase activity of the uninfected cells)
B=(Firefly luciferase activity of the compound-free well)−(Firefly luciferase activity of the uninfected cells)
IC50 of the compound was calculated by a plot with concentration as the logarithm and the rate of viral proliferation as the real part using the FORECAST function (linear regression method) of Microsoft Office Excel 2003.

[1] = MaRBLE cells (human T lymphocyte-derived HPB-M(a)) infected with HIV-1 (JRCSF), 7 days culture, rate of viral proliferation by luciferase activity

IC50 [1]	SMILES	IC50
360 nM	O=C(Nc1ccccc1)c1c(O)c2c(Nc3ccccc3)ncnc2n(O)c1=O [Example 81, 4-anilino-5,8-dihydroxy-7-oxo-N-phenyl-7,8-dihydropyrido[2,3-d]pyrimidine-6-carboxamide]	
370 nM	Cc1ncnc2c1c(NCc1ccc(C(F)(F)F)nc1)cc(=O)n2O [Example 83, 8-hydroxy-4-methyl-5-(((6-(trifluoromethyl)pyridin-3-yl)methyl)amino)pyrido[2,3-d]pyrimidine-7(8H)-one]	
310 nM	Cc1ncnc2c1c(NCCc1cccnc1)cc(=O)n2O [Example 85, 8-hydroxy-4-methyl-5-((2-(pyridin-3-yl)ethyl)amino)pyrido[2,3-d]pyrimidin-7(8H)-one]	
500 nM	Cc1ncnc2c1c(NCCc1ccncc1)cc(=O)n2O [Example 86, 8-hydroxy-4-methyl-5-((2-(pyridin-4-yl)ethyl)amino)pyrido[2,3-d]pyrimidin-7(8H)-one]	
81 nM	Cc1ncnc2c1c(Nc1ccccc1)cc(=O)n2O [Example 87, 5-anilino-8-hydroxy-4-methylpyrido[2,3-d]pyrimidin-7(8H)-one]	
63 nM	Cc1ncnc2c1c(NCc1ccc3cc[nH]c3c1)cc(=O)n2O [Example 88, 8-hydroxy-5-(((1H-indol-6-yl)methyl)amino)-4-methylpyrido[2,3-d]pyrimidin-7(8H)-one]	
85 nM	Cc1ncnc2c1c(NCc1cccc3[nH]ccc13)cc(=O)n2O [Example 89, 8-hydroxy-5-(((1H-indol-4-yl)methyl)amino)-4-methylpyrido[2,3-d]pyrimidin-7(8H)-one]	
580 nM	Cc1ncnc2c1c(NC1CCN(C)CC1)cc(=O)n2O [Example 90, 8-hydroxy-4-methyl-5-((1-methylpiperidin-4-yl)amino)pyrido[2,3-d]pyrimidin-7(8H)-one]	
31 nM	Cc1ncnc2c1c(NCCc1ccccn1)cc(=O)n2O [Example 92, 8-hydroxy-4-methyl-5-((2-(pyridin-2-yl)ethyl)amino)pyrido[2,3-d]pyrimidin-7(8H)-one]	
45 nM	Cc1ncnc2c1c(NCc1ccc3[nH]ccc3c1)cc(=O)n2O [Example 93, 8-hydroxy-5-(((1H-indol-5-yl)methyl)amino)-4-methylpyrido[2,3-d]pyrimidin-7(8H)-one]	
43 nM	Cc1ncnc2c1c(NCc1ccc(-c3ccccc3)nc1)cc(=O)n2O [Example 94, 8-hydroxy-4-methyl-5-(((6-phenylpyridin-3-yl)methyl)amino)pyrido[2,3-d]pyrimidin-7(8H)-one]	
110 nM	Cc1ncnc2c1c(NCc1cc3ccccc3[nH]1)cc(=O)n2O [Example 95, 8-hydroxy-5-(((1H-indol-2-yl)methyl)amino)-4-methylpyrido[2,3-d]pyrimidin-7(8H)-one]	
200 nM	O=c1cc(NCc2ccc(-c3ccccc3)cc2)c2cncnc2n1O [Example 97, 5-(((biphenyl-4-yl)methyl)amino)-8-hydroxypyrido[2,3-d]pyrimidin-7(8H)-one]	
210 nM	CN(C)c1ccc(CNc2cc(=O)n(O)c3ncncc23)cc1 [Example 102, 5-((4-(dimethylamino)benzyl)amino)-8-hydroxypyrido [2,3-d]pyrimidin-7(8H)-one]	
200 nM	O=c1cc(NCc2ccc(O)cc2)c2cncnc2n1O [Example 103, 8-hydroxy-5-((4-hydroxybenzyl)amino)pyrido[2,3-d]pyrimidin-7(8H)-one]	
64 nM	O=C(NCc1ccccc1)c1c(O)c2cncnc2n(O)c1=O [Example 105, N-benzyl-5,8-dihydroxy-7-oxo-7,8-dihydropyrido[2,3-d]pyrimidine-6-carboxamide]	

More lines, now with the values behind:

SMILES	IC50 [1]	IC50
Cc1ncnc2c1c(NCc1cccnc1N1CCOCC1)cc(=O)n2O [Example 57, 8-hydroxy-4-methyl-5-(((2-(morpholin-4-yl)pyridin-3-yl)methyl)amino)pyrido[2,3-d]pyrimidin-7(8H)-one]	85 nM	
Cc1ncnc2c1c(NCc1ccc(OCC(F)(F)F)nc1)cc(=O)n2O [Example 58, 8-hydroxy-4-methyl-5-(((6-(2,2,2-trifluoroethoxy)pyridin-3-yl)methyl)amino)pyrido[2,3-d]pyrimidin-7(8H)-one]	94 nM	
Cc1ncnc2c1c(NC(c1ccccc1)c1ccccc1)cc(=O)n2O [Example 59, 5-((diphenylmethyl)amino)-8-hydroxy-4-methylpyrido[2,3-d]pyrimidin-7(81-1)-one]	160 nM	
O=c1cc(NCc2ccccc2)c2c(-c3ccccc3)ncnc2n1O [Example 60, 5-(benzylamino)-8-hydroxy-4-phenylpyrido[2,3-d]pyrimidin-7(8H)-one]	190 nM	
O=c1cc(O)c2c(-c3ccccc3)ncnc2n1O [Example 61, 5,8-dihydroxy-4-phenylpyrido[2,3-d]pyrimidin-7(8H)-one]	490 nM	
O=C(NCc1ccccc1)c1ncnc2c1c(O)cc(=O)n2O [Example 63, N-benzyl-5,8-dihydroxy-7-oxo-7,8-dihydropyrido[2,3-d]pyrimidine-4-carboxamide]	870 nM	
Cc1ncnc2c1c(O)c(-c1ccccc1)c(=O)n2O [Example 64, 5,8-dihydroxy-4-methyl-6-phenylpyrido[2,3-d]pyrimidin-7(8H)-one]	350 nM	
O=c1cc(O)c2c(Cc3ccccc3)ncnc2n1O [Example 66, 4-benzyl-5,8-dihydroxypyrido[2,3-d]pyrimidin-7(8H)-one]	560 nM	
O=c1c(-c2ccccc2)c(O)c2c(-c3ccccc3)ncnc2n1O [Example 67, 5,8-dihydroxy-4,6-diphenylpyrido[2,3-d]pyrimidin-7(8H)-one]	160 nM	
Cc1c(O)c2c(-c3ccccc3)ncnc2n(O)c1=O [Example 68, 5,8-dihydroxy-6-methyl-4-phenylpyrido[2,3-d]pyrimidin-7(8H)-one]	250 nM	
O=C(NCc1ccccc1)c1cc2c(NCc3ccccc3)ncnc2n(O)c1=O [Example 70, N-benzyl-4-(benzylamino)-8-hydroxy-7-oxo-7,8-dihydropyrido[2,3-d]pyrimidine-6-carboxamide]	790 nM	
Cc1ncnc2c1c(NCc1ccccc1-c1cccnc1)cc(=O)n2O [Example 72, 8-hydroxy-4-methyl-5-((2-(pyridin-3-yl)benzyl)amino)pyrido[2,3-d]pyrimidin-7(8H)-one]	150 nM	
O=c1cc(O)c2c(O)ncnc2n1O [Example 77, 4,5,8-trihydroxypyrido[2,3-d]pyrimidin-7(8H)-one]	590 nM	
O=C(NCc1ccccc1)c1c(O)c2c(NCc3ccccc3)ncnc2n(O)c1=O [Example 78, N-benzyl-4-(benzylamino)-5,8-dihydroxy-7-oxo-7,8-dihydropyrido[2,3-d]pyrimidine-6-carboxamide]	300 nM	
O=c1cc(O)c2c(NCc3ccccc3)ncnc2n1O [Example 79, 4-(benzylamino)-5,8-dihydroxypyrido[2,3-d]pyrimidine-7(8H)-one]	820 nM	
O=c1cc(O)c2c(NCCc3ccccc3)ncnc2n1O [Example 80, 5,8-dihydroxy-4-((2-phenylethyl)amino)pyrido[2,3-d]pyrimidine-7(8H)-one]	570 nM	
CNc1cccc(CNc2cc(=O)n(O)c3ncnc(C)c23)c1 [Example 84, 8-hydroxy-4-methyl-5-((3-(methylamino)benzyl)amino)pyrido[2,3-d]pyrimidin-7(8H)-one]		76 nM
